Here are results for one compound from publication PMC4727972, “Chronic unpredicted mild stress-induced depression alter saxagliptin pharmacokinetics and CYP450 activity in GK rats” (PeerJ, 2016).

Broadly, the AUC(0-inf) is the area under the concentration-time curve extrapolated to infinity. A high value points to more exposure. One may read the Cmax as the highest concentration seen after dosing. Usually Tmax stands for the time from dosing to the highest level.

A short description of data set [1]: Pharmacokinetics of Sax in plasma after oral 0.5 mg/kg (HPLC-MS/MS, noncompartmental analysis). Format: in vivo, GK rats. The note with it: for AUC(0-inf) / Cmax / Tmax / MRT last / half-life / Vd/F: plasma, po; for AUC(0-inf) / Cmax / Tmax / MRT last / half-life / Vd/F / CLz/F: n = 9, mean ± SD; for MRT last: read-out: MRT0−t; for half-life: read-out: T1/2z (converted); for Vd/F: read-out: Vz/F. Here is the method:
All rats were fasted overnight but with free access to water. 0.5 mg/kg Sax (suspended in 5 g/L Carboxymethyl cellulose-Na) was given orally. Blood samples were collected by eye canthus at 0.17, 0.33, 0.5, 0.83, 1.17, 1.5, 2, 3, 5, 8 h. Then plasma samples were centrifuged to obtain plasma at 3,000 × g for 5 min. The samples were stored at −80 °C for analysis.
The Sax concentration was assayed by the HPLC-tandem mass spectrometry (MS/MS) method ([Gao et al., 2012]). A total of 100 µL plasma sample and 10 µL Sit (100 ng/mL) was added with 1.2 mL ethyl acetate in a centrifuge tube, vortex-mixed for 2 min and centrifuged at 10,000 × g for 3 min. The supernatant was evaporated to dry. The residue was re-dissolved with 100 µL methanol via vortex-mixed for 1 min and centrifuged at 16,000 × g for 1 min. 2.0 µL of the supernatant was injected into the HPLC-MS/MS system for analysis.
The HPLC equipped with a reverse-phase column was connected to a triple quadrupole tandem MS with an electrospray interface. The system consists of the LC system (Agilent 1260, Agilent, US) with a G1322A degasser, a G1318B auto-modifiable pump, a G1367E auto-sampler, a G1316A adjustable column temperature box, and the Agilent 6420 MS system. Chromatographic separation was achieved using a ZORBAX EP-C18 column (2.1 mm × 50 mm, 1.8 µm, Agilent). The mobile phase contained 35% methanol and 65% water (0.1% ammonium formate) with a flow rate 0.4 mL/min. The optimized conditions of MS were as follows: positive electrospray ionization (ESI^+) mode, capillary at 4,000 V, ion-spray gas temperature at 350 °C, gas flow rate at 11 L/min, and nebulizer at 15 psi. The parameters of Sax and Sit were as follows: fragmentary voltage at 110 V and 130 V, collision energy at 22 units and 18 units, respectively. The multiple-reaction monitoring mode was selected for quantifying of Sax and Sit, for which the precursor-to-product ion transitions were 316.1 → 179.9 and 407.9 → 234.9, respectively. The MassHunter Workstation software (Version B.06.00, Agilent) was used to collect and process data.
Statistical analysis and pharmacokinetics parameter analysis were performed with SPSS 16.0 (SPSS Inc., Chicago, IL, USA) and DAS 2.1 software (Drug and Statistics, Shanghai University of Traditional Chinese Medicine, Shanghai, China). Differences between the two groups were analyzed via independent-samples t Test. Data was expressed as mean ± standard deviation (SD). p < 0.05 was considered statistically significant.

A further data set deals with liver microsomal enzyme. The data set can be described thus: Metabolism of Sax using liver microsomal enzyme in vitro. The note with it: decreased from 0.50 mg/mL. Format: in vitro ADME, GK rats. As for the experimental part: The control and CUMS-induced rats were fasted for 12 h and killed by cervical dislocation before removal of the liver. The liver was excised, rinsed with ice-cold normal saline (0.9% NaCl, w/v), weighed for 1 g, and homogenized with 4.0 mL in a 0.05M Tris–HCl buffer (pH 7.4). The homogenate was centrifuged at 10,000 × g at 4 °C for 20 min, and the supernatant was further centrifuged at 105,000 × g at 4 °C for 60 min. The helvus sediment was reconstituted with 1.0 mL Tris–HCl buffer and stored at −80 °C for analysis.
The incubation mixtures (final volume: 500 µL) contained 1 mg/mL microsomal protein, 0.1 M phosphate buffer (PH = 7.4), 1 mM nicotinamide adenine dinucleotide phosphate (NADPH), probe drugs (1 mg/mL Phe, Ven, Nif). A total of 100 µL microsomal protein and 100 µL probe drugs were added with 250 µL phosphate buffer in a brown centrifuge tube, vortex-mixed for 1 min, and incubated at 37 °C water. After 5 min pre-incubation, the reactions were initiated by the addition of 50 µL NADPH. The incubations were performed at 37 °C for 20 min in a water bath and terminated by adding 1.4 mL cold ethyl acetate and 20 µL Lor (5 µg/mL). […]
It is well known that Sax is mainly metabolized by cytochrome 3A enzyme in the liver. […] Considering of the complicacy of metabolic system in vivo, we detected metabolism of Sax using liver microsomal enzyme in vitro with cocktails method. […]
(Liver microsomes are vesicles of endoplasmic reticulum, rich in cytochrome P450 enzymes.)

Details of data set [2]: method as in Fura et al., 2009. The note with it: rats; ref Fura et al., 2009; cited from earlier work.
The mark [3] stands for this setting: GK, rat, 0.5 mg/kg, control group (diabetic GK rats), 0.5 mg/kg oral.
Setting [4] is: GK, rat, 0.5 mg/kg, depression group (CUMS-induced, GK rats), 0.5 mg/kg oral.
The mark [5] stands for this setting: depression group vs control group, 0.5 mg/kg oral, p < 0.05.

Read-outs that look alike come from different tables or passages of the source.

With `N#C[C@@H]1C[C@@H]2C[C@@H]2N1C(=O)[C@@H](N)C12CC3CC(CC(O)(C3)C1)C2` [Sax, (S)-3-hydroxyadamantylglycine-L-cis-4,5-methanoprolinenitrile], in data set [1] (GK, rat, 0.5 mg/kg, single plasma sample at 5 h after oral Sax (chromatogram, Fig. 3C), group not stated), the concentration at 5 h amounted to 3.05 ng/mL. In data set [1] (setting [3]), the AUC(0-inf) came to 67.1 ± 14.1 ng·h/mL, the Cmax is 20.5 ± 4.61 ng/mL, the time of peak concentration (Tmax) was 1.46 ± 0.38 h and the MRT last came to 2.55 ± 0.32 h. In data set [1] (setting [3]), the half-life was 1.73 ± 0.43 h and the Vd/F worked out at 21 ± 8.22 L. Further, in data set [1] (setting [4]), the area under the curve AUC(0-inf) amounted to 44.6 ± 15.5 ng·h/mL, the peak level (Cmax) was 14.8 ± 6.03 ng/mL, the Tmax was 1.04 ± 0.25 h and the MRT last is 1.95 ± 0.57 h. In data set [1] (setting [4]), the half-life was 1.58 ± 0.59 h and the Vd/F is 29.8 ± 14.2 L. The CLz/F in data set [1] (control group (diabetic GK rats), 0.5 mg/kg oral) is 7.35 ± 1.34 L/h. The compound also yielded a CLz/F in data set [1] (depression group (CUMS-induced, GK rats), 0.5 mg/kg oral) of 13.05 ± 6.30 L/h. For the same compound, in data set [1] (setting [5]), the “decrease of area under curve (AUC0−∞) in the depression group” value is 33%, the “decrease of mean residence time (MRT0−t) in the depression group” value stood at 24%, the “decrease of peak concentration (Cmax) in the depression group” value was 27% and the “decrease of peak time (Tmax) in the depression group” value was 29%. For the same compound, the “concentration of Sax after incubation with liver microsomal enzyme” value in the data set on liver microsomal enzyme (control group microsomes) stood at 350000 ng/mL. Besides, the “concentration of Sax after incubation with liver microsomal enzyme” value in the data set with liver microsomal enzyme (depression group microsomes) was determined as 150000 ng/mL. For the same compound, the oral bioavailability result in data set [2] was “good oral bioavailability”.
